{"source": "ChEMBL document CHEMBL5131499", "about": "“Design, synthesis and glycosidase inhibition of C-4 branched LAB and DAB derivatives” (Eur J Med Chem, 2022)", "data": [{"target": "Lysosomal alpha-glucosidase (Homo sapiens, UniProt P10253)", "experiment": "Inhibition of human lysosomal alpha glucosidase assessed as release of p-nitrophenol at 1000 uM using p-nitrophenyl glycoside as substrate by spectrometric assay relative to control", "units": {"inhibition": "%"}, "values": [{"compound": "OC[C@@]1(c2c(F)c(F)c(F)c(F)c2F)NC[C@@H](O)[C@@H]1O", "inhibition": 18.5}, {"compound": "Cc1ccc([C@]2(CO)NC[C@@H](O)[C@@H]2O)cc1", "inhibition": 21.3}, {"compound": "COc1ccc([C@@]2(CO)NC[C@H](O)[C@H]2O)cc1OC", "inhibition": 27.1}]}, {"tested_on": "Prunus dulcis", "experiment": "Inhibition of almond beta-glucosidase assessed as release of p-nitrophenol at 1000 uM using p-nitrophenyl glycoside as substrate by spectrometric assay relative to control", "units": {"inhibition": "%"}, "values": [{"compound": "OC[C@@]1(c2c(F)c(F)c(F)c(F)c2F)NC[C@@H](O)[C@@H]1O", "inhibition": 5.2}, {"compound": "Cc1ccc([C@]2(CO)NC[C@@H](O)[C@@H]2O)cc1", "inhibition": 8.7}, {"compound": "COc1ccc([C@@]2(CO)NC[C@H](O)[C@H]2O)cc1OC", "inhibition": 0}]}, {"tested_on": "Helix pomatia", "experiment": "Inhibition of snail beta-mannosidase assessed as release of p-nitrophenol at 1000 uM using p-nitrophenyl glycoside as substrate by spectrometric assay relative control", "units": {"inhibition": "%"}, "values": [{"compound": "OC[C@@]1(c2c(F)c(F)c(F)c(F)c2F)NC[C@@H](O)[C@@H]1O", "inhibition": 0}, {"compound": "Cc1ccc([C@]2(CO)NC[C@@H](O)[C@@H]2O)cc1", "inhibition": 0}, {"compound": "COc1ccc([C@@]2(CO)NC[C@H](O)[C@H]2O)cc1OC", "inhibition": 0}]}, {"tested_on": "Escherichia coli", "experiment": "Inhibition of Escherichia coli beta-glucuronidase assessed as release of p-nitrophenol at 1000 uM using p-nitrophenyl glycoside as substrate by spectrometric assay relative to control", "units": {"inhibition": "%"}, "values": [{"compound": "OC[C@@]1(c2c(F)c(F)c(F)c(F)c2F)NC[C@@H](O)[C@@H]1O", "inhibition": 0}, {"compound": "Cc1ccc([C@]2(CO)NC[C@@H](O)[C@@H]2O)cc1", "inhibition": 0}, {"compound": "COc1ccc([C@@]2(CO)NC[C@H](O)[C@H]2O)cc1OC", "inhibition": 0}]}, {"tested_on": "Aspergillus niger", "experiment": "Inhibition of Aspergillus niger amyloglucosidase assessed as release of p-nitrophenol at 1000 uM using p-nitrophenyl glycoside as substrate by spectrometric assay relative to control", "units": {"inhibition": "%"}, "values": [{"compound": "OC[C@@]1(c2c(F)c(F)c(F)c(F)c2F)NC[C@@H](O)[C@@H]1O", "inhibition": 7.8}, {"compound": "Cc1ccc([C@]2(CO)NC[C@@H](O)[C@@H]2O)cc1", "inhibition": 8.3}, {"compound": "COc1ccc([C@@]2(CO)NC[C@H](O)[C@H]2O)cc1OC", "inhibition": 6.4}]}, {"target": "Alpha-galactosidase (Coffea arabica) (UniProt Q42656)", "sequence (Q42656 16-378 limits assumed)": "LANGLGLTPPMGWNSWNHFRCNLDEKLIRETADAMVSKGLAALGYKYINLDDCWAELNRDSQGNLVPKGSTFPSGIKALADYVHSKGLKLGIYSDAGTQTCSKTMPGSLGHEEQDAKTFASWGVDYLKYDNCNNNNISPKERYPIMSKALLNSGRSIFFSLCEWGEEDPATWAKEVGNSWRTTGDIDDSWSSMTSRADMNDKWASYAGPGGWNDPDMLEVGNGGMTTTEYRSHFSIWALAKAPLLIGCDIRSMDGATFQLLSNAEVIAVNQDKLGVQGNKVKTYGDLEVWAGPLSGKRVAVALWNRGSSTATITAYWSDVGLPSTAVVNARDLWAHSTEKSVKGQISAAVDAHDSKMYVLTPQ", "experiment": "Inhibition of coffee beans alpha-galactosidase assessed as release of p-nitrophenol at 1000 uM using p-nitrophenyl glycoside as substrate by spectrometric assay relative to control", "units": {"inhibition": "%"}, "values": [{"compound": "OC[C@@]1(c2c(F)c(F)c(F)c(F)c2F)NC[C@@H](O)[C@@H]1O", "inhibition": 0}, {"compound": "Cc1ccc([C@]2(CO)NC[C@@H](O)[C@@H]2O)cc1", "inhibition": 1.6}, {"compound": "COc1ccc([C@@]2(CO)NC[C@H](O)[C@H]2O)cc1OC", "inhibition": 0}]}, {"species": "Rattus norvegicus", "experiment": "Inhibition of rat intestinal alpha-trehalase assessed as release of p-nitrophenol at 1000 uM using p-nitrophenyl glycoside as substrate by spectrometric assay relative to control", "units": {"inhibition": "%"}, "values": [{"compound": "OC[C@@]1(c2c(F)c(F)c(F)c(F)c2F)NC[C@@H](O)[C@@H]1O", "inhibition": 14.1}, {"compound": "Cc1ccc([C@]2(CO)NC[C@@H](O)[C@@H]2O)cc1", "inhibition": 12.9}, {"compound": "COc1ccc([C@@]2(CO)NC[C@H](O)[C@H]2O)cc1OC", "inhibition": 0}]}, {"target": "Sucrase-isomaltase, intestinal (Rattus norvegicus, UniProt P23739)", "sequence (P23739 1-1013 limits assumed)": "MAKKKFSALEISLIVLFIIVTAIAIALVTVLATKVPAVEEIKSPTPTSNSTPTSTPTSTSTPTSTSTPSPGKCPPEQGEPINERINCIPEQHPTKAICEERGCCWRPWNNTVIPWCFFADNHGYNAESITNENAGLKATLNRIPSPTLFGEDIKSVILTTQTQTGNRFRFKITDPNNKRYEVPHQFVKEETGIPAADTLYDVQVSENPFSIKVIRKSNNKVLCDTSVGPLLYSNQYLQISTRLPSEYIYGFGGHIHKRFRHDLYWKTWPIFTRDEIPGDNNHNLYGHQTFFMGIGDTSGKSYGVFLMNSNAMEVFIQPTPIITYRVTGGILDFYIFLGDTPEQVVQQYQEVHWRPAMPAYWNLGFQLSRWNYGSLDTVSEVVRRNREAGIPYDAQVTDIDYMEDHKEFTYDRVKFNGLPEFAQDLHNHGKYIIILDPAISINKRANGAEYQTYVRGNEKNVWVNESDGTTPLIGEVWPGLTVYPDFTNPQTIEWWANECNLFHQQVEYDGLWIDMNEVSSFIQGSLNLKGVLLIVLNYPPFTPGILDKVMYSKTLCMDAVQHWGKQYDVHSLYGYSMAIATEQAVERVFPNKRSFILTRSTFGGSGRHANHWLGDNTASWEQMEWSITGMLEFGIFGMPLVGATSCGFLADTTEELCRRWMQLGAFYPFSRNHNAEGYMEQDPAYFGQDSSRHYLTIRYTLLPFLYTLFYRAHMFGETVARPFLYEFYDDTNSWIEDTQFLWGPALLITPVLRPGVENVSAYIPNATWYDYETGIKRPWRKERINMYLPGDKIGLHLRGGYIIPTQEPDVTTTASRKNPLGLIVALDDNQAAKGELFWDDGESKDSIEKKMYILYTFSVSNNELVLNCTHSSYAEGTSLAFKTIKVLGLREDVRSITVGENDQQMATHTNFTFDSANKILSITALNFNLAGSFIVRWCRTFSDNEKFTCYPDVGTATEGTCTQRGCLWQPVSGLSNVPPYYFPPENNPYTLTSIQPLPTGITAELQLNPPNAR", "sequence (P23739 1014-1841 limits assumed)": "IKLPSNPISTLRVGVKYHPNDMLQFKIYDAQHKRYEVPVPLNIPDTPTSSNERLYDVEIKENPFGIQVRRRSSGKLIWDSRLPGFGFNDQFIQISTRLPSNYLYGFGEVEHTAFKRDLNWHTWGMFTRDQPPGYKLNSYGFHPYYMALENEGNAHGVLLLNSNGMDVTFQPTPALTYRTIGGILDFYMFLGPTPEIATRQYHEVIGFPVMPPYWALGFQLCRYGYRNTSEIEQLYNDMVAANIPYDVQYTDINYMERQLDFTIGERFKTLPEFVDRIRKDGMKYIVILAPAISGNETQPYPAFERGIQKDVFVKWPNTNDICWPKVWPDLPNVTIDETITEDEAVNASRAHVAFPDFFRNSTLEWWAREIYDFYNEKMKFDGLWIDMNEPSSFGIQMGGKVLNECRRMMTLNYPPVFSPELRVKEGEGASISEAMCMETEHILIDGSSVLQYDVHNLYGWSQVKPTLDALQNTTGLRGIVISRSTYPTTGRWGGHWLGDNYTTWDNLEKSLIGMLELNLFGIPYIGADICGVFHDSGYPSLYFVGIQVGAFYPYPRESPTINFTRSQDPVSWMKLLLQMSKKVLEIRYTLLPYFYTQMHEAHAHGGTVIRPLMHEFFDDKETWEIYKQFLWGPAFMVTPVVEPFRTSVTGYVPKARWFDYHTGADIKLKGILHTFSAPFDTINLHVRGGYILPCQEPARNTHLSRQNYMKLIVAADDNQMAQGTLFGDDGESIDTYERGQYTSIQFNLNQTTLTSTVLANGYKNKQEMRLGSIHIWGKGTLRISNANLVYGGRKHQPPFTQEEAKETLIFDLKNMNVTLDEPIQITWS", "experiment": "Inhibition of rat intestinal sucrase assessed as release of p-nitrophenol using p-nitrophenyl glycoside as substrate by spectrometric assay", "units": {"IC50": "nM"}, "values": [{"compound": "OC[C@@]1(c2c(F)c(F)c(F)c(F)c2F)NC[C@@H](O)[C@@H]1O", "IC50": 2500}, {"compound": "Cc1ccc([C@]2(CO)NC[C@@H](O)[C@@H]2O)cc1", "IC50": 3400}, {"compound": "COc1ccc([C@@]2(CO)NC[C@H](O)[C@H]2O)cc1OC", "IC50": 2500}]}, {"target": "T1, Alpha-mannosidase (Canavalia ensiformis) (UniProt C0HJB3)", "T1 sequence (whole entry)": "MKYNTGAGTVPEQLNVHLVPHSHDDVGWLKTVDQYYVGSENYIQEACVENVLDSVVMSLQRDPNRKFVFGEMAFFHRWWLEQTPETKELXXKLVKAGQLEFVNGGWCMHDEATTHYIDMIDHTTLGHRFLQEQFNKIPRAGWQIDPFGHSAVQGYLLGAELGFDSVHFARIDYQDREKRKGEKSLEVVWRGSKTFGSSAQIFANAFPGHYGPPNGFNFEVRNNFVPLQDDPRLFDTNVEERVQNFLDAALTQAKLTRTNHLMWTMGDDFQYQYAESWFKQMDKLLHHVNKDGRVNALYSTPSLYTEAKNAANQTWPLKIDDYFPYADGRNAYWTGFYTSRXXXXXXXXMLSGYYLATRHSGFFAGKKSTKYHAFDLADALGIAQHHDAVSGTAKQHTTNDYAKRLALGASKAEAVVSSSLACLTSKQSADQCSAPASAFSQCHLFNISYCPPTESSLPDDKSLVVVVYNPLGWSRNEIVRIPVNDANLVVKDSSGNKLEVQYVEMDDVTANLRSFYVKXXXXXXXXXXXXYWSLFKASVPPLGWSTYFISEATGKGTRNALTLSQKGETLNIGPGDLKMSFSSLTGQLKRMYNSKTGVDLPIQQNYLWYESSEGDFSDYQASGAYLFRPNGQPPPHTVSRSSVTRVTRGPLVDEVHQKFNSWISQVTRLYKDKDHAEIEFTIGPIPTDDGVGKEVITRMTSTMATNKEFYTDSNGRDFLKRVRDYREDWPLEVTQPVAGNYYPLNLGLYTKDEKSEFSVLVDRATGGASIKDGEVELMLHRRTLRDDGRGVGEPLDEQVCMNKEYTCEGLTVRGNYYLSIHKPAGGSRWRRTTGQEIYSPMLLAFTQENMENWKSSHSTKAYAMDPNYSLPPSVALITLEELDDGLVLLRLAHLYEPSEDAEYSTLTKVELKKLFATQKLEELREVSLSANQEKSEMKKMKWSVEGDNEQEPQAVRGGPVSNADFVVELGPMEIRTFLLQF", "experiment": "Inhibition of jack bean alpha-mannosidase assessed as release of p-nitrophenol at 1000 uM using p-nitrophenyl glycoside as substrate by spectrometric assay relative to control", "units": {"inhibition": "%"}, "values": [{"compound": "OC[C@@]1(c2c(F)c(F)c(F)c(F)c2F)NC[C@@H](O)[C@@H]1O", "inhibition": 0}, {"compound": "Cc1ccc([C@]2(CO)NC[C@@H](O)[C@@H]2O)cc1", "inhibition": 0}, {"compound": "COc1ccc([C@@]2(CO)NC[C@H](O)[C@H]2O)cc1OC", "inhibition": 0}]}, {"species": "Bos taurus", "experiment": "Inhibition of bovine liver beta-galactosidase assessed as release of p-nitrophenol at 1000 uM using p-nitrophenyl glycoside as substrate by spectrometric assay relative to control", "units": {"inhibition": "%"}, "values": [{"compound": "OC[C@@]1(c2c(F)c(F)c(F)c(F)c2F)NC[C@@H](O)[C@@H]1O", "inhibition": 38.1}, {"compound": "Cc1ccc([C@]2(CO)NC[C@@H](O)[C@@H]2O)cc1", "inhibition": 35}, {"compound": "COc1ccc([C@@]2(CO)NC[C@H](O)[C@H]2O)cc1OC", "inhibition": 19}]}, {"species": "Bos taurus", "experiment": "Inhibition of bovine liver beta-glucronidase assessed as release of p-nitrophenol at 1000 uM using p-nitrophenyl glycoside as substrate by spectrometric assay relative to control", "units": {"inhibition": "%"}, "values": [{"compound": "OC[C@@]1(c2c(F)c(F)c(F)c(F)c2F)NC[C@@H](O)[C@@H]1O", "inhibition": 18.4}, {"compound": "Cc1ccc([C@]2(CO)NC[C@@H](O)[C@@H]2O)cc1", "inhibition": 8.7}, {"compound": "COc1ccc([C@@]2(CO)NC[C@H](O)[C@H]2O)cc1OC", "inhibition": 23.3}]}, {"species": "Bos taurus", "experiment": "Inhibition of bovine liver beta-glucosidase assessed as release of p-nitrophenol at 1000 uM using p-nitrophenyl glycoside as substrate by spectrometric assay relative to control", "units": {"inhibition": "%"}, "values": [{"compound": "OC[C@@]1(c2c(F)c(F)c(F)c(F)c2F)NC[C@@H](O)[C@@H]1O", "inhibition": 33}, {"compound": "Cc1ccc([C@]2(CO)NC[C@@H](O)[C@@H]2O)cc1", "inhibition": 29.1}, {"compound": "COc1ccc([C@@]2(CO)NC[C@H](O)[C@H]2O)cc1OC", "inhibition": 15.8}]}, {"target": "not listed separately", "experiment": "Inhibition of yeast alpha-glucosidase assessed as release of p-nitrophenol using p-nitrophenyl glycoside as substrate by spectrometric assay", "set-up": "species or system Saccharomyces cerevisiae", "units": {"IC50": "µM"}, "values": [{"compound": "OC[C@@]1(c2c(F)c(F)c(F)c(F)c2F)NC[C@@H](O)[C@@H]1O", "IC50": 388}, {"compound": "Cc1ccc([C@]2(CO)NC[C@@H](O)[C@@H]2O)cc1", "IC50": 212}, {"compound": "COc1ccc([C@@]2(CO)NC[C@H](O)[C@H]2O)cc1OC", "IC50": 64}]}, {"tested_on": "Oryza sativa", "experiment": "Inhibition of rice alpha-glucosidase assessed as release of p-nitrophenol at 1000 uM using p-nitrophenyl glycoside as substrate by spectrometric assay relative to control", "units": {"inhibition": "%"}, "values": [{"compound": "OC[C@@]1(c2c(F)c(F)c(F)c(F)c2F)NC[C@@H](O)[C@@H]1O", "inhibition": 19.5}, {"compound": "Cc1ccc([C@]2(CO)NC[C@@H](O)[C@@H]2O)cc1", "inhibition": 29.1}, {"compound": "COc1ccc([C@@]2(CO)NC[C@H](O)[C@H]2O)cc1OC", "inhibition": 32.3}]}, {"target": "T2, Tissue alpha-L-fucosidase (Bos taurus) (UniProt Q2KIM0)", "T2 sequence (whole entry)": "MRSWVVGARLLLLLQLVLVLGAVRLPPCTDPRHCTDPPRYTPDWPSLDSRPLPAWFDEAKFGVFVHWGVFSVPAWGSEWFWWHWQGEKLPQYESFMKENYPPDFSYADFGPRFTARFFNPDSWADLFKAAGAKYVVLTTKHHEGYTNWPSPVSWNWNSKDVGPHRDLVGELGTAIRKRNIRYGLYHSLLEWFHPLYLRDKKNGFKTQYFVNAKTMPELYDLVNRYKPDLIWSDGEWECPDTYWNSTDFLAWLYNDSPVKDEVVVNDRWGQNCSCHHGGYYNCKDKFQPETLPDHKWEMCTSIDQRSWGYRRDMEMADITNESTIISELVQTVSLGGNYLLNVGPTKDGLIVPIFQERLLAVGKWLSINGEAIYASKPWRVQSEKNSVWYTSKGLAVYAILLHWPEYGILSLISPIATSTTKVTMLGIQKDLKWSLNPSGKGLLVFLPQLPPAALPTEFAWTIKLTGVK", "experiment": "Inhibition of bovine kidney alpha-L-fucosidase assessed as release of p-nitrophenol at 1000 uM using p-nitrophenyl glycoside as substrate by spectrometric assay relative to control", "units": {"inhibition": "%"}, "values": [{"compound": "OC[C@@]1(c2c(F)c(F)c(F)c(F)c2F)NC[C@@H](O)[C@@H]1O", "inhibition": 3.8}, {"compound": "Cc1ccc([C@]2(CO)NC[C@@H](O)[C@@H]2O)cc1", "inhibition": 0}, {"compound": "COc1ccc([C@@]2(CO)NC[C@H](O)[C@H]2O)cc1OC", "inhibition": 0.5}]}, {"species": "Sus scrofa", "experiment": "Inhibition of porcine kidney alpha-trehalase assessed as release of p-nitrophenol at 1000 uM using p-nitrophenyl glycoside as substrate by spectrometric assay relative to control", "units": {"inhibition": "%"}, "values": [{"compound": "OC[C@@]1(c2c(F)c(F)c(F)c(F)c2F)NC[C@@H](O)[C@@H]1O", "inhibition": 0}, {"compound": "Cc1ccc([C@]2(CO)NC[C@@H](O)[C@@H]2O)cc1", "inhibition": 0}, {"compound": "COc1ccc([C@@]2(CO)NC[C@H](O)[C@H]2O)cc1OC", "inhibition": 0}]}, {"tested_on": "Penicillium decumbens", "experiment": "Inhibition of Penicillium decumbens alpha-L-rhamnosidase assessed as release of p-nitrophenol at 1000 uM using p-nitrophenyl glycoside as substrate by spectrometric assay relative to control", "units": {"inhibition": "%"}, "values": [{"compound": "OC[C@@]1(c2c(F)c(F)c(F)c(F)c2F)NC[C@@H](O)[C@@H]1O", "inhibition": 0}, {"compound": "Cc1ccc([C@]2(CO)NC[C@@H](O)[C@@H]2O)cc1", "inhibition": 7.4}, {"compound": "COc1ccc([C@@]2(CO)NC[C@H](O)[C@H]2O)cc1OC", "inhibition": 0}]}]}
